This note sets out measurements from patent publication US20240052421A1, “METHOD OF IDENTIFYING AND TREATING MITOCHONDRIAL SUBTYPE TUMORS” (The Trustees of Columbia University in the City of New York, priority 2020, published 2024).

What all share (assay type): cell-based, human
The subject of one assay is MTC PDCs. The assay is described as follows: Viability of MTC patient-derived cells (PDCs) after compound treatment, CellTiterGlo. To be noted: 13 MTC PDCs, 72 h treatment, serial dilutions. The text has this:
(§1) FIGS. 9A-K show MTC PDCs are distinctly sensitive to mitochondrial inhibition. […] Data are mean±s.d. of n≥3 replicates for each PDC from one representative experiment. […] Middle: correlation analysis of MTC (blue) and GPM (red) activity in PDCs (n=25 MTC PDCs and n=21 GPM PDCs; Spearman's correlation, p=−0.51, P=0.0003). Bottom: enrichment of fCNV gain and loss of mitochondrial and glycolytic-related genes in MTC PDCs (n=25) and GPM PDCs (n=21). The number of genes amplified/deleted in each tumor is color coded (amplifications, red to white; deletions, blue to white). FIGS. 9F and G show viability curves of nine MTC PDCs and nine GPM PDCs each derived from an independent patient treated with either FX-11 (F) or DEAB (G). Data are mean±s.d. from n≥4 replicates for each PDC from one representative experiment. […] Representative MRs with differential activity (n=304 tumors, n=2,799 cells from dataset 1, n=9,652 cells from dataset 2 and n=4,916 cells from dataset 3; two-sided MWW test, FDR<0.01) in TCGA and at least two out of three single-cell datasets are shown (two-sided MWW-GST test, log it(NES)>0.58, FDR<0.01). Nodes represent MRs and target genes, while lines represent interactions. […] Data are mean±s.d. from one representative experiment including n=3 independent infections for each PDC; **P=0.0010 and 0.0013 for PDC-002 shRNA1 and shRNA2 versus vector, respectively; **P=0.0030 and 0.0023 for PDC-026 shRNA1 and shRNA2 versus vector, respectively; *P=0.0285 for PDC-078 shRNA1 versus vector; *P=0.0142 for PDC-021 shRNA1 versus vector. […] Data are mean±s.d. of one representative experiment assessed by n=30 replicates for each PDC; **P=0.0022. […] Data are mean±s.d. of n=3 independent experiments for each PDC, each performed in triplicate. Bars on the right-hand side of the graph indicate mean±s.e.m. of values observed in the two sets of PDCs; n=7 MTC PDCs and n=7 GPM PDCs, each derived from an independent patient; ***P=0.00006. Experiments in A-D, F, G, I and J were repeated two times with similar results. In all experiments, significance was evaluated by two-tailed t-test, unequal variance.
(§2) Therefore, we tested the sensitivity of 13 MTC and ten GPM PDCs to compounds that interfere with OXPHOS and mitochondrial metabolism. […] Conversely, GPM PDCs were resistant to all four compounds (FIG. 9A-D). […] Furthermore, the complementary fCN gains and losses of MTC and GPM gene sets robustly correlated with mitochondrial inhibitor sensitivity score (FIG. 9E). Treatment of GBM PDCs with inhibitors of glycolysis (DEAB and FX-11)^51 had no effect regardless of the metabolic class of PDC (FIGS. 9F,G).
(§3) Compound treatment of PDCs. […] Viability was determined using CellTiterGlo assay reagent (Promega, no. G7570) and the GloMax-Multi+Microplate Multimode Reader (Promega).
In general terms: In ATP-based viability assays light output follows the ATP content of the culture.

A further assay concerns GPM PDCs. Description: Viability of GPM patient-derived cells (PDCs) after compound treatment, CellTiterGlo. To be noted: ten GPM PDCs, 72 h treatment, serial dilutions.
Source text: as §1, §2, §3

For the next assay, the system named is mitochondrial PDOs. Description: Viability of mitochondrial GBM patient-derived organoids (PDOs), serial dilution of mitochondrial inhibitors. How it is done:
(§4) The objective of the study is to test the activity of IM-156, a novel mitochondrial inhibitor currently in clinical testing, in vitro in 25 GBM-PDO organoids previously classified molecularly as mitochondrial (MTC, 13 organoids) or glycolytic/plurimetabolic (GPM, 12 organoids) plus 2 GBM-PDO harboring a FGFR3-TACC3 (F3T3) fusion.
(§5) Using IM-156 (0 μM -15 μM, 1/3 dilution, 7 points and 0-45 μM, 1/3 dilution, 10 points), […], and 2 FGFR3-TACC3 positive GBM PDOs were tested. Seventy-two hours later viability was assessed and the half-maximal inhibitory concentration was calculated. The activity (IC50) of IM-156 was compared with IACS-010759, Metformin, Tigecycline, and Menadione, 4 inhibitors of mitochondrial activity/respiration. […] FGFR3-TACC3 fusion expressing cells had been previously characterized as mitochondrial GBM.

For assay [1], the system named is glycolytic/plurimetabolic PDOs. The assay is described as follows: Viability of glycolytic/plurimetabolic GBM PDOs, serial dilution of mitochondrial inhibitors. How it is done:
as §4, §5

The next assay deals with FGFR3-TACC3 PDOs. The assay is described as follows: Viability of FGFR3-TACC3 positive GBM PDOs, serial dilution of mitochondrial inhibitors. How it is done:
as §4, §5

For another assay, the system named is GBM PDCs. The assay is described as follows: Viability of GBM PDCs (MTC and GPM) treated with inhibitors of glycolysis. To be noted: nine MTC and nine GPM PDCs, 72 h treatment.
Source text: FIGS. 9A-K show MTC PDCs are distinctly sensitive to mitochondrial inhibition. […] Data are mean±s.d. of n≥3 replicates for each PDC from one representative experiment. […] Middle: correlation analysis of MTC (blue) and GPM (red) activity in PDCs (n=25 MTC PDCs and n=21 GPM PDCs; Spearman's correlation, p=−0.51, P=0.0003). Bottom: enrichment of fCNV gain and loss of mitochondrial and glycolytic-related genes in MTC PDCs (n=25) and GPM PDCs (n=21). The number of genes amplified/deleted in each tumor is color coded (amplifications, red to white; deletions, blue to white). FIGS. 9F and G show viability curves of nine MTC PDCs and nine GPM PDCs each derived from an independent patient treated with either FX-11 (F) or DEAB (G). Data are mean±s.d. from n≥4 replicates for each PDC from one representative experiment. […] Data are mean±s.d. of one representative experiment assessed by n=30 replicates for each PDC; **P=0.0022. […] In all experiments, significance was evaluated by two-tailed t-test, unequal variance. […]
as §3

[2] abbreviates: 15 μM as highest concentration, 72 h.

By IC50 is commonly meant the point on the concentration scale where inhibition reaches its midpoint.

For the compound `CC1=CC(=O)c2ccccc2C1=O` [menadione], the “effect on viability of MTC PDCs” value in the assay on MTC PDCs is given as “reduced the viability”. For the same compound, the “effect on viability of GPM PDCs” value in the assay with GPM PDCs is “resistant”.
With `CN(C)c1cc(NC(=O)CNC(C)(C)C)c(O)c2c1C[C@H]1C[C@H]3[C@H](N(C)C)C(O)=C(C(N)=O)C(=O)[C@@]3(O)C(O)=C1C2=O` [tigecycline], the “effect on viability of MTC PDCs” value in the assay with MTC PDCs was “reduced the viability”. The “effect on viability of GPM PDCs” value with GPM PDCs is reported as “resistant”.
On to `Cc1nc(-c2nc(-c3ccc(OC(F)(F)F)cc3)no2)nn1Cc1cccc(N2CCC(S(C)(=O)=O)CC2)c1` [IACS-010759], for which, in the assay on MTC PDCs, the “effect on viability of MTC PDCs” value was “reduced the viability”. Besides, the “effect on viability of GPM PDCs” value with GPM PDCs is “resistant”.
As to `NC(=Nc1ccc(OC(F)(F)F)cc1)N=C(N)N1CCCC1` [IM-156], the “number of mitochondrial PDOs in which the drug was effective” value in the assay with mitochondrial PDOs (setting [2]) is given as 12 out of 14. Also, the “effectiveness in MTC models as opposed to GPM subtype” value in the assay on mitochondrial PDOs (MTC versus GPM patient-derived tumor models) was “significantly more effective”. Also, in the assay with mitochondrial PDOs (mitochondrial PDOs, 15 μM as highest concentration, viability at 72 h, read-out: Median IC50), the half-maximal inhibitory concentration (IC50) came out at 6.38 µM. Besides, in assay [1] (setting [2]), the “number of glycolytic/plurimetabolic PDOs in which the drug was effective” value is given as 2 out of 10. In addition, in assay [1] (maximum concentration raised from 15 μM to 45 μM), the “change in sensitivity of glycolytic/plurimetabolic GBM PDOs on increasing maximum concentration” value is “significant increase in sensitivity”. Besides, in the assay with FGFR3-TACC3 PDOs (setting [2]), the “number of FGFR3-TACC3 PDOs in which the drug was effective” value was 2 out of 2. In addition, in the assay on FGFR3-TACC3 PDOs (2 FGFR3-TACC3 positive GBM PDOs), the “sensitivity of FGFR3-TACC3 fusion expressing cells” value is listed as “distinct sensitivity”.
On to `CCCc1c(O)c(O)c(C(=O)O)c2cc(Cc3ccccc3)c(C)cc12` [FX-11], for which the “effect on viability of GBM PDCs regardless of metabolic class” value in the assay on GBM PDCs is “no effect”.
The same measure, in the same setting: the value for `CCN(CC)c1ccc(C=O)cc1` [DEAB] was “no effect”.
As to `CN(C)C(=N)N=C(N)N` [metformin], the “effect on viability of MTC PDCs” value with MTC PDCs was “reduced the viability”. The “effect on viability of GPM PDCs” value in the assay on GPM PDCs was “resistant”.
